From paper PMC6331977, “Bioassay-Guided Isolation and Identification of Xanthine Oxidase Inhibitory Constituents from the Leaves of Perilla frutescens” (Molecules, 2015)

Columns and labels:
[1] = biological target: T1, xanthine oxidase (XO) (Bos taurus, UniProt P80457); assay: Assay of XO inhibitory modes of action (enzyme kinetics, Lineweaver-Burk plots); conditions: for Mode of Inhibition: Lineweaver-Burk plots
[2] = biological target: T1, xanthine oxidase (XO); assay: Assay of XO activity (uric acid formation determined by HPLC); type: biochemical; set-up: purchased Sigma-Aldrich Chemicals (St. Louis, MO, USA); conditions: for XO inhibitory activity (in words): in vitro; for IC50: xanthine as substrate, 25 °C, pH 7.5, uric acid by HPLC

T1 sequence (P80457 whole entry): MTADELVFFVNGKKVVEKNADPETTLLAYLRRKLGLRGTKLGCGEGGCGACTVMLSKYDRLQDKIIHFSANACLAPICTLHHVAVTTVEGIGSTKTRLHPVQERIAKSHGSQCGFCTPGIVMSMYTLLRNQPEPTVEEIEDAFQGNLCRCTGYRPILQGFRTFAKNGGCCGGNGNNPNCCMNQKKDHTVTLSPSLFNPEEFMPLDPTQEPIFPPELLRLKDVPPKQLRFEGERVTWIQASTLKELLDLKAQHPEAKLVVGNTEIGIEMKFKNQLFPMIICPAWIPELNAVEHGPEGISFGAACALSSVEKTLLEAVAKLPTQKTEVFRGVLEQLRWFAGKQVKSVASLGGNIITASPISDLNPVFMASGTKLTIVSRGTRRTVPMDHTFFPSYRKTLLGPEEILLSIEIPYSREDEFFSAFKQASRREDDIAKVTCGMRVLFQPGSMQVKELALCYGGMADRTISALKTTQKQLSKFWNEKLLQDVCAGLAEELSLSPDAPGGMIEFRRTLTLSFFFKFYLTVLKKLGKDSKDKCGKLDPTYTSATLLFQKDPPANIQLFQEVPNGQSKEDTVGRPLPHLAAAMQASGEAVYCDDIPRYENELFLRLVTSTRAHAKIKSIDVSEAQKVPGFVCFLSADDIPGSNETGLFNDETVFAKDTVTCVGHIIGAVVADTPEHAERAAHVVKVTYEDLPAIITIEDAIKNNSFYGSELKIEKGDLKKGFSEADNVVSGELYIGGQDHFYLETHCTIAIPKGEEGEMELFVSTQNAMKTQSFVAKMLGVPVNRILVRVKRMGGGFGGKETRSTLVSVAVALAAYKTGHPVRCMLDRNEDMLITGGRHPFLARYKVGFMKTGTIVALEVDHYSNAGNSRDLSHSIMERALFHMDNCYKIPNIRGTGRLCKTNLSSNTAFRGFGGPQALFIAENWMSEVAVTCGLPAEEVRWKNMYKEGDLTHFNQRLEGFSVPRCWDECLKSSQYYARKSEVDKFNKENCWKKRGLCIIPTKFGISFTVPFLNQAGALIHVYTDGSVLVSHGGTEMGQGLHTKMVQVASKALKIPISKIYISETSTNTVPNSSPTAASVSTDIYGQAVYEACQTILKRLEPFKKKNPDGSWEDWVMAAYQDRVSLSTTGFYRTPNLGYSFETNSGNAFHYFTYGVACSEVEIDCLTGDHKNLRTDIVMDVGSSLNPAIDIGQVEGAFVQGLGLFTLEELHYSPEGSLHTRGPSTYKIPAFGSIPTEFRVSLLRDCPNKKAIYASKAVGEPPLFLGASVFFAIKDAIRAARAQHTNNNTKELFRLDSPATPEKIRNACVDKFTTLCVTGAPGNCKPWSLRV

SMILES | Mode of Inhibition [1] | Mode of Inhibition ([1]; listed as allopurinol) | XO inhibitory activity (in words) [2] | IC50 [2] | Ki [1] | Mode of Inhibition ([1]; listed as apigenin)
Oc1ncnc2[nH]ncc12 [Allopurinol, reference compound] | Competitive | competitive inhibitions | – | – | – | –
O=c1cc(-c2ccc(O)cc2)oc2cc(O)cc(O)c12 [Apigenin, apigenin] | Mixed | – | could significantly inhibit the production of uric acid | 0.44 µM | 0.11 µM | mixed inhibition mode
O=C(O)/C=C/c1ccc(O)c(O)c1 [Caffeic acid, caffeic acid] | – | – | – | 121 µM | 9.22 µM | –
COC(=O)[C@@H](Cc1ccc(O)c(O)c1)OC(=O)/C=C/c1ccc(O)c(O)c1 [Methyl rosmarinate, methyl rosmarinate] | Competitive | – | could significantly inhibit the production of uric acid | 26.6 µM | 2.85 µM | –
O=C(/C=C/c1ccc(O)c(O)c1)O[C@H](Cc1ccc(O)c(O)c1)C(=O)O [Rosmarinic acid, rosmarinic acid] | Competitive | – | weak XO inhibitory activities | 91.7 µM | 26.2 µM | –
C=COC(=O)/C=C/c1ccc(O)c(O)c1 [Vinyl caffeate, vinyl caffeate] | Competitive | – | could significantly inhibit the production of uric acid | 31.3 µM | 5.05 µM | –
